Measurements from ChEMBL document CHEMBL2073905, “Interactions of a nonpeptidic drug, valacyclovir, with the human intestinal peptide transporter (hPEPT1) expressed in a mammalian cell line” (J Pharmacol Exp Ther, 1999).
Where a SMILES comes first, the peptide text is derived from it. [ ]: non-standard residue; d: D form. Sar = CNCC(=O)O

Assays:
Assay type in all cases: functional, cell-based
[1] = target: T1, Solute carrier family 15 member 1 (Homo sapiens) (UniProt P46059); assay: TP_TRANSPORTER: inhibition of VACV uptake (VACV: 20 uM, Cephalexin: 10000 uM) in PEPT1-expressing CHO cells
T1 sequence (whole entry): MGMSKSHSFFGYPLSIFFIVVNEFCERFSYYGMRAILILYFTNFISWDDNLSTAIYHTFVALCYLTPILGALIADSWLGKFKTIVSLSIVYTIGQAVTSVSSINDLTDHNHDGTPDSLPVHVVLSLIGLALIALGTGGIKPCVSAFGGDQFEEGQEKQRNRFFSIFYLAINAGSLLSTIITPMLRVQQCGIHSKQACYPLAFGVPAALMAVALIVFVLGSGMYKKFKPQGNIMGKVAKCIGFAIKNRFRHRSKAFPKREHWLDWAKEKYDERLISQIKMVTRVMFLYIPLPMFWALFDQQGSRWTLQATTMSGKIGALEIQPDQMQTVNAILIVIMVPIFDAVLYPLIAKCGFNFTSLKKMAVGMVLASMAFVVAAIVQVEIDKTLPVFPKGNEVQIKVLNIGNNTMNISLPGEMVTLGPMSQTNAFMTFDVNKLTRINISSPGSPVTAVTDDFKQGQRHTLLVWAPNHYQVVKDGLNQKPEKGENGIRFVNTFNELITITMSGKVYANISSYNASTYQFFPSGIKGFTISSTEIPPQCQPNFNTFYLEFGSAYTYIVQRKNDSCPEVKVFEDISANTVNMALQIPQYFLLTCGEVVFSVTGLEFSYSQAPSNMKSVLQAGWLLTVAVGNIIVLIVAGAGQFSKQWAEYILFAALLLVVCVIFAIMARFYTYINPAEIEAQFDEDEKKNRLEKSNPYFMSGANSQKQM

[2] = target: T1, Solute carrier family 15 member 1 (Homo sapiens); assay: TP_TRANSPORTER: inhibition of VACV uptake (VAVC: 20 uM, Ampicillin: 10000 uM) in PEPT1-expressing CHO cells
[3] = target: T1, Solute carrier family 15 member 1 (Homo sapiens); assay: TP_TRANSPORTER: inhibition of VACV uptake (VACV: 20 uM, Gly-Leu: 10000 uM) in PEPT1-expressing CHO cells
[4] = target: T2, Solute carrier family 15 member 1 (Homo sapiens, UniProt P46059); assay: TP_TRANSPORTER: inhibition of VACV uptake in PEPT1-expressing CHO cells
T2 sequence (P46059 whole entry): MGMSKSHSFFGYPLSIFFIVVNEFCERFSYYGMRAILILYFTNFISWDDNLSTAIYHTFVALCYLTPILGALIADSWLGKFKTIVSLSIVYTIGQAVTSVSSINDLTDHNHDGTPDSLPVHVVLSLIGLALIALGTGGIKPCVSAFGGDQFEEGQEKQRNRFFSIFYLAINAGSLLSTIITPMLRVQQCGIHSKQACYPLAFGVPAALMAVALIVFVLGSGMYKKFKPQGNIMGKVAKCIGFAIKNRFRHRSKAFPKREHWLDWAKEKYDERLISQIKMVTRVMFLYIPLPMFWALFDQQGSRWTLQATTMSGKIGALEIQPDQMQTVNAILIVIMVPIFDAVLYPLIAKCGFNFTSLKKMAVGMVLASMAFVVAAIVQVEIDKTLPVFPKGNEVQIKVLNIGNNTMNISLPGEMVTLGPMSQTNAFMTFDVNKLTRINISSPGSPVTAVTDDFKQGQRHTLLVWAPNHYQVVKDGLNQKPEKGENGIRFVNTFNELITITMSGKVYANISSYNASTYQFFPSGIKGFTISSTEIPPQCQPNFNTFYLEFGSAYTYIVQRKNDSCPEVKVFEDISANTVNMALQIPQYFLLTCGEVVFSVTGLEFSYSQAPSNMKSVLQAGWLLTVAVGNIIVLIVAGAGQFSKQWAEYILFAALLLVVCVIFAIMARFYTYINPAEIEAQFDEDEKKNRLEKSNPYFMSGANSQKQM

[5] = target: T1, Solute carrier family 15 member 1 (Homo sapiens); assay: TP_TRANSPORTER: inhibition of VACV uptake (VACV: 20 uM, Gly-Gly: 10000 uM) in PEPT1-expressing CHO cells
[6] = target: T1, Solute carrier family 15 member 1 (Homo sapiens); assay: TP_TRANSPORTER: inhibition of VACV uptake (VACV: 20 uM, Leu-Leu: 10000 uM) in PEPT1-expressing CHO cells
[7] = substrate: CC(C)[C@H](N)C(=O)OCCOCn1cnc2c(=O)nc(N)[nH]c21; assay: (§1) TP_TRANSPORTER: uptake in PEPT1-expressing CHO cells
[8] = substrate: CN(CC(=O)O)C(=O)CN; assay: as §1

## CC1=C(C(=O)O)N2C(=O)[C@@H](NC(=O)[C@H](N)c3ccccc3)[C@H]2SC1
[1]
  inhibition: 50%

## CC1(C)S[C@@H]2[C@H](NC(=O)[C@H](N)c3ccccc3)C(=O)N2[C@H]1C(=O)O
[2]
  inhibition: 50%

## CC(C)C[C@H](NC(=O)CN)C(=O)O
[3]
  inhibition: > 80%

## CN(CC(=O)O)C(=O)CN [GLYCYLSARCOSINE] (H-Gly-[Sar]-OH)
[4]
  Ki: 12.8 mM

## CC1=C(C(=O)O)N2C(=O)[C@@H](NC(=O)[C@H](N)c3ccc(O)cc3)[C@H]2SC1 [CEFADROXIL]
[4]
  Ki: 9.1 mM

## NCC(=O)NCC(=O)O (H-Gly-Gly-OH)
[5]
  inhibition: > 80%

## CC(C)C[C@H](NC(=O)[C@@H](N)CC(C)C)C(=O)O
[6]
  inhibition: > 80%

B1: Solute carrier family 15 member 1 (Homo sapiens), P46059 (protein)
chain: MGMSKSHSFFGYPLSIFFIVVNEFCERFSYYGMRAILILYFTNFISWDDNLSTAIYHTFVALCYLTPILGALIADSWLGKFKTIVSLSIVYTIGQAVTSVSSINDLTDHNHDGTPDSLPVHVVLSLIGLALIALGTGGIKPCVSAFGGDQFEEGQEKQRNRFFSIFYLAINAGSLLSTIITPMLRVQQCGIHSKQACYPLAFGVPAALMAVALIVFVLGSGMYKKFKPQGNIMGKVAKCIGFAIKNRFRHRSKAFPKREHWLDWAKEKYDERLISQIKMVTRVMFLYIPLPMFWALFDQQGSRWTLQATTMSGKIGALEIQPDQMQTVNAILIVIMVPIFDAVLYPLIAKCGFNFTSLKKMAVGMVLASMAFVVAAIVQVEIDKTLPVFPKGNEVQIKVLNIGNNTMNISLPGEMVTLGPMSQTNAFMTFDVNKLTRINISSPGSPVTAVTDDFKQGQRHTLLVWAPNHYQVVKDGLNQKPEKGENGIRFVNTFNELITITMSGKVYANISSYNASTYQFFPSGIKGFTISSTEIPPQCQPNFNTFYLEFGSAYTYIVQRKNDSCPEVKVFEDISANTVNMALQIPQYFLLTCGEVVFSVTGLEFSYSQAPSNMKSVLQAGWLLTVAVGNIIVLIVAGAGQFSKQWAEYILFAALLLVVCVIFAIMARFYTYINPAEIEAQFDEDEKKNRLEKSNPYFMSGANSQKQM
[7]
  Km: 1640 µM
[8]
  Km: 3130 µM
